Measured values reported in US12509460B2 (Skyhawk Therapeutics, Inc., priority 2019, dated 2025).

How the values were obtained:
[1] = system: SMN protein in spinal muscular atrophy (SMA) patient fibroblasts (GM03813, Coriell); test: SMN protein assay, Mesoscale Discovery (MSD); assay type: cell-based, human; settings: SMA patient fibroblasts GM03813, 48 hours, MSD; for EC50: read-out: SMN2 protein EC50
In short: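 Absolute SMN levels were quantified by MSD against an SMN protein standard curve (1 μg/ml to 19.5 pg/ml) run on each plate. Samples were lysates of GM03813 patient fibroblasts (7000 cells/well) treated 48 hours with compound doses from 2.5 μM down to 0.6 nM.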

[2] = Quantitative splicing assay (HTT), qPCR; assay type: cell-based, human; settings: Homo sapiens, GM04724, 24 h, GM04724 lymphoblasts, qPCR, read-out: HTT Splicing: E49-50 EC50
In short: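 TaqMan qPCR on cell-lysate cDNA quantifies cryptic-exon inclusion from HTT intron 49. Lymphoblasts plated at 50,000 cells/well had received compound for 24 h, 0.15 nM-2.5 uM range, 0.1% DMSO.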

MDR1 (P-gp) = test: Blood-brain-barrier (BBB) penetration potential via MDCK-MDR1 permeability assay; settings: dog; for Papp A→B at 120 min, 5 μM: MDCK-MDR1, pH 7.4, MDCK-MDR1: Papp A-B, A-B direction; for Papp B→A at 120 min, 5 μM: MDCK-MDR1, pH 7.4, MDCK-MDR1: Papp B-A, B-A direction
[3] = system: MDR1-MDCK cell monolayers; test: as above; settings: for MDCK-MDR1: % Recov A-B: A-B direction; for MDCK-MDR1: % Recov B-A: B-A direction
MDR1 = test: as above; settings: dog, MDCK-MDR1, pH 7.4, MDCK-MDR1: Efflux, efflux ratio
[4] = system: mHTT protein in GM04724 (CAG 70/20) Huntington's disease patient lymphoblast cells; test: mHTT protein assay, 2B7-MW1 assay via Mesoscale Discovery (MSD); assay type: cell-based, human; settings: GM04724 Huntington's disease patient lymphoblasts
In short: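 Signal from the 2B7-MW1 antibody pair on MSD, rising with polyQ length and smaller HTT fragments, measured mHTT after 48 h compound exposure (0.6 nM–10 μM) in GM04724 cells. A parallel replicate plate gave CellTiter Glo viability.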

[5] = system: SMN FL and SMN Δ7 in spinal muscular atrophy (SMA) patient fibroblasts (GM03813, Coriell); test: Quantitative splicing assay (SMN), qPCR; assay type: cell-based, human; settings: Homo sapiens, Fibroblast, 24 h, SMA patient fibroblasts GM03813, 24 h, qPCR; read-out: SMN2 Splicing FL EC50
Description: Spinal muscular atrophy (SMA) patient fibroblasts (GM03813, Coriell) are plated in 96-well plates at 50,000 cells/well. […] Treated cells are lysed and cDNA synthesized using the Fast Advanced Cells-to-Ct kit (Thermofisher A35378) according to the manufacturer's instructions. 2 μL of each cDNA are used in qPCR reactions. […] Reactions are run in a Quant Studio 6 qPCR instrument with default settings.

Compound	EC50 [1] [nM]	EC50 [2] [nM]	Papp A→B at 120 min, 5 μM (MDR1 (P-gp)) [×10⁻⁶ cm/s]	Papp B→A at 120 min, 5 μM (MDR1 (P-gp)) [×10⁻⁶ cm/s]	MDCK-MDR1: % Recov A-B [3] [%]	MDCK-MDR1: % Recov B-A [3] [%]	efflux ratio at 120 min, 5 μM (MDR1)	EC50 [4] [nM]	EC50 [5] [nM]	SMN2 protein EC50 [1]
Cc1cc(=O)c2cc(O)c(-c3ccc(N(C)[C@@H]4C[C@H]5CC[C@H](N5)[C@@H]4F)nn3)cc2o1 [Compound 49A, 7-(6-(((1S,2S,3R,5R)-2-fluoro-8-azabicyclo[3.2.1]octan-3-yl)(methyl)amino)pyridazin-3-yl)-6-hydroxy-2-methyl-4H-chromen-4-one]	0.01 to 15	16 to 50	0.72	30.7	93	78	43	16 to 50	0.01 to 15	
Cc1cc(=O)c2cc(O)c(-c3ccc(N(C)[C@H]4C[C@@H]5CC[C@@H](N5)[C@H]4F)nn3)cc2o1 [Compound 49B, 7-(6-(((1R,2R,3S,5S)-2-fluoro-8-azabicyclo[3.2.1]octan-3-yl)(methyl)amino)pyridazin-3-yl)-6-hydroxy-2-methyl-4H-chromen-4-one]	0.01 to 15	0.01 to 15	0.86	32.9	86	91	38	0.01 to 15	0.01 to 15	
Cc1cc(=O)c2cc(-c3ccc(N(C)[C@@H]4C[C@H]5CC[C@H](N5)[C@@H]4F)nn3)c(O)cc2o1 [Compound 50A, 6-(6-(((1S,2S,3R,5R)-2-fluoro-8-azabicyclo[3.2.1]octan-3-yl)(methyl)amino)pyridazin-3-yl)-7-hydroxy-2-methyl-4H-chromen-4-one]	0.01 to 15	0.01 to 15	2.16	68.3	85	92	32	0.01 to 15	16 to 50	
Cc1cc(=O)c2cc(-c3ccc(N(C)[C@H]4C[C@@H]5CC[C@@H](N5)[C@H]4F)nn3)c(O)cc2o1 [Compound 50B, 6-(6-(((1R,2R,3S,5S)-2-fluoro-8-azabicyclo[3.2.1]octan-3-yl)(methyl)amino)pyridazin-3-yl)-7-hydroxy-2-methyl-4H-chromen-4-one]	0.01 to 15	0.01 to 15	1.81	51.8	80	95	29	0.01 to 15	0.01 to 15	
CN(c1ccc(-c2cc3ncn(C)c(=O)c3cc2O)nn1)[C@H]1C[C@@H]2CC[C@@H](N2)[C@H]1F [Compound 51B, 7-(6-(((1R,2R,3S,5S)-2-fluoro-8-azabicyclo[3.2.1]octan-3-yl)(methyl)amino)pyridazin-3-yl)-6-hydroxy-3-methylquinazolin-4(3H)-one]	0.01 to 15	0.01 to 15	0.91	50.3	88	90	55	0.01 to 15	0.01 to 15	
CN(c1ccc(-c2cc(F)c(-n3ccnn3)cc2O)nn1)[C@@H]1C[C@H]2CC[C@H](N2)[C@@H]1F [Compound 52A, 4-fluoro-2-(6-(((1S,2S,3R,5R)-2-fluoro-8-azabicyclo[3.2.1]octan-3-yl)(methyl)amino)pyridazin-3-yl)-5-(1H-1,2,3-triazol-1-yl)phenol]	16 to 50	101 to 500	6.63	49.7	86	92	8	16 to 50	51 to 100	
CN(c1ccc(-c2cc(F)c(-n3ccnn3)cc2O)nn1)[C@H]1C[C@@H]2CC[C@@H](N2)[C@H]1F [Compound 52B, 4-fluoro-2-(6-(((1R,2R,3S,5S)-2-fluoro-8-azabicyclo[3.2.1]octan-3-yl)(methyl)amino)pyridazin-3-yl)-5-(1H-1,2,3-triazol-1-yl)phenol]	0.01 to 15	16 to 50	7.44	54.4	97	90	7	0.01 to 15	16 to 50	
Cn1cnc2cc(-c3ccc(N(C4CC4)[C@H]4C[C@@H]5CC[C@@H](N5)[C@H]4F)nn3)c(O)cc2c1=O [Compound 56B, 7-(6-(cyclopropyl((1R,2R,3S,5S)-2-fluoro-8-azabicyclo[3.2.1]octan-3-yl)amino)pyridazin-3-yl)-6-hydroxy-3-methylquinazolin-4(3H)-one]		0.01 to 15	1.12	51.2	96	97	46	0.01 to 15	16 to 50	E (501 ≤ E ≤ 10.000)
O=C(c1cc2cc(O)c(-c3ccc(N(C4CC4)[C@H]4C[C@@H]5CC[C@@H](N5)[C@H]4F)nn3)cc2o1)N1CCC1 [Compound 57B, azetidin-1-yl(6-(6-(cyclopropyl((1R,2R,3S,5S)-2-fluoro-8-azabicyclo[3.2.1]octan-3-yl)amino)pyridazin-3-yl)-5-hydroxybenzofuran-2-yl)methanone]	0.01 to 15	16 to 50	0.69	48.5	99	95	71	0.01 to 15	16 to 50	
CN(c1ccc(-c2ccc(-n3ccnn3)cc2O)nn1)[C@H]1C[C@@H]2CC[C@@H](N2)[C@H]1F [Compound 61B, 2-(6-(((1R,2R,3S,5S)-2-fluoro-8-azabicyclo[3.2.1]octan-3-yl)(methyl)amino)pyridazin-3-yl)-5-(1H-1,2,3-triazol-1-yl)phenol]	0.01 to 15	0.01 to 15	3.79	45.8	98	93	12	0.01 to 15	0.01 to 15	
CN(c1ccc(-c2ccc(-n3ccnn3)cc2O)nn1)[C@@H]1C[C@H]2CCC[C@H](N2)[C@@H]1F [Compound 62A, 2-(6-(((1S,2S,3R,5R)-2-fluoro-9-azabicyclo[3.3.1]nonan-3-yl)(methyl)amino)pyridazin-3-yl)-5-(1H-1,2,3-triazol-1-yl)phenol]	16 to 50	0.01 to 15	3.37	61.4	113	109	18	0.01 to 15	16 to 50	
CN(c1ccc(-c2ccc(-n3ccnn3)cc2O)nn1)[C@H]1C[C@@H]2CCC[C@@H](N2)[C@H]1F [Compound 62B, 2-(6-(((1R,2R,3S,5S)-2-fluoro-9-azabicyclo[3.3.1]nonan-3-yl)(methyl)amino)pyridazin-3-yl)-5-(1H-1,2,3-triazol-1-yl)phenol]	0.01 to 15	0.01 to 15	3.18	59.8	82	80	19	0.01 to 15	0.01 to 15	
